Measurements reported in US20230295140A1, “INHIBITORS OF VAP-1” (Acucela Inc., priority 2021, published 2023).
Counter-ions that a name gives are not always drawn.

Columns and labels:
Type in all cases: biochemical
rhMAO-A = rhMAO-A (Homo sapiens (Human), UniProt P21397); experiment: MAO-Glo assay, MAO-A inhibition
Summary of the method: (§1)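 Recombinant human MAO-A or MAO-B with luciferin-derivative substrate (10 μM for MAO-A, […]) in 100 mM HEPES pH 7.5, 5% glycerol, 1 h at room temperature; luminescence read 20 min after detection reagent.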

rhMAO-B = rhMAO-B (Homo sapiens (Human), UniProt P27338); experiment: MAO-Glo assay, MAO-B inhibition
rhMAO-B, sequence (P27338 whole entry): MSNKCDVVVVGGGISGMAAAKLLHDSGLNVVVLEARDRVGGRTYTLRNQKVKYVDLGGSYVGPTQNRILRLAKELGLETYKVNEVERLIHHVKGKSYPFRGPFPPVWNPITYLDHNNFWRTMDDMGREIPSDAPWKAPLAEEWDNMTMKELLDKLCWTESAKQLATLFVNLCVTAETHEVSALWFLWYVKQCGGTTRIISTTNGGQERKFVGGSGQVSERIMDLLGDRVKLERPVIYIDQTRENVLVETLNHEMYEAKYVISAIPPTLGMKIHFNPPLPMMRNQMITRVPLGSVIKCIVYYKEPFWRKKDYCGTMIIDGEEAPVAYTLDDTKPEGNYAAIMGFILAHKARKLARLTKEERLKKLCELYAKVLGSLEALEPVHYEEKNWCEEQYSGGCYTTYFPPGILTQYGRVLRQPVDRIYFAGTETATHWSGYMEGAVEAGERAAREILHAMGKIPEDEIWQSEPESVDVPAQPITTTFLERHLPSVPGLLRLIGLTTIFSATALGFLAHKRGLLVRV
Summary of the method: as §1

rhVAP-1 = rhVAP-1 (Homo sapiens (Human), UniProt Q16853); experiment: VAP-1 fluorometric assay (Amplex Red/HRP, benzylamine substrate); details: class symbols, ranges defined in μM
rhVAP-1, sequence (Q16853 whole entry): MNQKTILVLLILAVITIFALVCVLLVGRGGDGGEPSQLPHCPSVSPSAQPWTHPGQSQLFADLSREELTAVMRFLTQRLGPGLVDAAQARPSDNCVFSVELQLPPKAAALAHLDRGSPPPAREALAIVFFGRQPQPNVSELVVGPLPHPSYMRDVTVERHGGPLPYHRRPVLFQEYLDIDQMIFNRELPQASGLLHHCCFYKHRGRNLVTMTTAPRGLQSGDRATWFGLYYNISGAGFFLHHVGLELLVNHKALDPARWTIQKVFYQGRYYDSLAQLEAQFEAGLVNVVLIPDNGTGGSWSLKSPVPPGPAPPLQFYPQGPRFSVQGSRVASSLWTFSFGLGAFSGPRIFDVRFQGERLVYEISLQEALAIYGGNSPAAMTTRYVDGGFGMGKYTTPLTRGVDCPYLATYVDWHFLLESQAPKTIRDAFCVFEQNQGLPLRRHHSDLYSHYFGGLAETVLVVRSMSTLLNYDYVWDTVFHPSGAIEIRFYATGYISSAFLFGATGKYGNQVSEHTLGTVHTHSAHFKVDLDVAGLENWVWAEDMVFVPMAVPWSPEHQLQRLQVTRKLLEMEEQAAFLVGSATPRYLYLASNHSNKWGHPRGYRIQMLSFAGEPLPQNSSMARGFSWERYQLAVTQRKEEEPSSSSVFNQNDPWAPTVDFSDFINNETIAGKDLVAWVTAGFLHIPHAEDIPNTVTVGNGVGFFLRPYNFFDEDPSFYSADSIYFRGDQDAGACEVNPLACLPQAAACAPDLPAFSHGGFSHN
Summary of the method: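 Recombinant human VAP-1 oxidizes 50 μM benzylamine in 10 mM NaHCO3 pH 7.4 containing 0.05 mM Amplex Red and 0.5 U HRP, with inhibitor in 0.5% DMSO. After 30 min at 37 °C in the dark, resorufin fluorescence is read […], calibrated against an H2O2 standard curve.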

[1] = class symbols, ranges defined in μM

rhMAO-A, sequence (P21397 whole entry): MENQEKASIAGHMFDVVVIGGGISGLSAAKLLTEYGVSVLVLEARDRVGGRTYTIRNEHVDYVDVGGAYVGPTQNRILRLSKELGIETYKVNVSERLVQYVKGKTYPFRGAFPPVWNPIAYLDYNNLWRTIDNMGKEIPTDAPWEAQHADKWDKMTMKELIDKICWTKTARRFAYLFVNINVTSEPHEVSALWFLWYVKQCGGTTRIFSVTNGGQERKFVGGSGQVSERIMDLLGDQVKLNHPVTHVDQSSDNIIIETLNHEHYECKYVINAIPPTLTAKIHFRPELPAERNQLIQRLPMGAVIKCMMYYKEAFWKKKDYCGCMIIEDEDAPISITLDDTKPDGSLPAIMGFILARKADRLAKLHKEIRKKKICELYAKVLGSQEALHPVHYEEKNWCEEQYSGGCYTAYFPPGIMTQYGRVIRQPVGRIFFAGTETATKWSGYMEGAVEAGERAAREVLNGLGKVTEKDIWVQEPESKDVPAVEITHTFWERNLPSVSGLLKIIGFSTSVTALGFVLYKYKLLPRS

Row | Molecule | IC50 (rhMAO-A; [1]) [µM] | IC50 (rhMAO-B; [1]) [µM] | IC50 (rhVAP-1) [µM] | IC50 (rhMAO-A; bound printed in cell) [µM] | IC50 (rhMAO-B; bound printed in cell) [µM]
1 | COc1ccc(CNc2nc3ccc(OC/C(=C\F)CN)cc3o2)cn1 [Example 76, (Z)-6-((2-(aminomethyl)-3-fluoroallyl)oxy)-N-((6-methoxypyridin-3-yl)methyl)benzo[d]oxazol-2-amine 4-methylbenzenesulfonate] | 1 to 10 | 1 to 10 | < 0.1 |  | 
2 | CCCCc1nc2ccc(NC/C(=C\F)CN)cc2o1 [Example 44, (Z)—N1-(2-butylbenzo[d]oxazol-6-yl)-2-(fluoromethylene)propane-1,3-diamine 4-methylbenzenesulfonate] | 10 to 30 | 0.1 to 1 | < 0.1 |  | 
3 | NC/C(=C\F)COc1ccc2nc(NCCCO)sc2c1 [Example 88, (E)-3-((6-((2-(aminomethyl)-3-fluoroallyl)oxy)benzo[d]thiazol-2-yl)amino)propan-1-ol 4-methylbenzenesulfonate] | 1 to 10 | 1 to 10 | < 0.1 |  | 
4 | NC/C(=C\F)COc1ccc2nc(NC3CCC(O)C3)oc2c1 (stereo not drawn) [Example 87, (E)-3-((6-((2-(aminomethyl)-3-fluoroallyl)oxy)benzo[d]oxazol-2-yl)amino)cyclopentan-1-ol 4-methylbenzenesulfonate] | 1 to 10 | 1 to 10 | < 0.1 |  | 
5 | NC/C(=C/F)COc1ccc2nc(NCc3ccc(N4CCCC4=O)cc3)oc2c1 [Example 57, (Z)-1-(4-(((6-((2-(aminomethyl)-3-fluoroallyl)oxy)benzo[d]oxazol-2-yl)amino)methyl)phenyl)pyrrolidin-2-one 4-methylbenzenesulfonate] | 1 to 10 |  | 1 to 10 |  | > 40
6 | CCCCc1nc2ccc(COC/C(=C/F)CN)cc2o1 [Example 28, (E)-2-(((2-butylbenzo[d]oxazol-6-yl)methoxy)methyl)-3-fluoroprop-2-en-1-amine] | 10 to 30 | < 0.1 | < 0.1 |  | 
7 | CC(C)(C)c1nc2ccc(OC/C(=C/F)CN)cc2o1 [Example 50, (E)-2-(((2-(tert-butyl)benzo[d]oxazol-6-yl)oxy)methyl)-3-fluoroprop-2-en-1-amine 4-methylbenzenesulfonate] | 10 to 30 | 1 to 10 | < 0.1 |  | 
8 | COc1cc(CNc2nc3ccc(OC/C(=C\F)CN)cc3o2)ccn1 [Example 74, (Z)-6-((2-(aminomethyl)-3-fluoroallyl)oxy)-N-((2-methoxypyridin-4-yl)methyl)benzo[d]oxazol-2-amine 4-methylbenzenesulfonate] | 1 to 10 | 1 to 10 | < 0.1 |  | 
9 | CCCCc1nc2ccc(N(C)C/C(=C/F)CN)cc2o1 [Example 20, (E)-N1-(2-butylbenzo[d]oxazol-6-yl)-2-(fluoromethylene)-N1-methylpropane-1,3-diamine] | 10 to 30 | 1 to 10 | < 0.1 |  | 
10 | CCCCc1nc2ccc(NC/C(=C/F)CN)cc2o1 [Example 17, (E)-N1-(2-butylbenzo[d]oxazol-6-yl)-2-(fluoromethylene)propane-1,3-diamine] | 10 to 30 | 0.1 to 1 | < 0.1 |  | 
11 | CCCCc1nc2ccc(OC/C(=C/F)CN)c(C)c2o1 [Example 10, (E)-2-(((2-butyl-7-methylbenzo[d]oxazol-6-yl)oxy)methyl)-3-fluoroprop-2-en-1-amine] | 1 to 10 | < 0.1 | 0.1 to 1 |  | 
12 | CCCNc1nc2ccc(OC/C(=C/F)CN)cc2s1 [Example 4, (E)-6-((2-(aminomethyl)-3-fluoroallyl)oxy)-N-propylbenzo[d]thiazol-2-amine] | 10 to 30 | 0.1 to 1 | < 0.1 |  | 
13 | (Z)-2-((6-((2-(aminomethyl)-3-fluoroallyl)oxy)benzo[d]oxazol-2-yl)amino)-N-methylacetamide (4-methylbenzenesulfonate) [Example 63] |  |  | < 0.1 | > 40 | > 40
14 | CCCCc1nc2ccc(OC/C(=C/F)CN)cc2o1 [Example 1, (E)-2-(((2-butylbenzo[d]oxazol-6-yl)oxy)methyl)-3-fluoroprop-2-en-1-amine 4-methylbenzenesulfonate] | < 0.1 | < 0.1 | < 0.1 |  | 
15 | CCCCn1cnc2cc(OC/C(=C/F)CN)ccc21 [Example 89, (E)-2-(((1-butyl-1H-benzo[d]imidazol-5-yl)oxy)methyl)-3-fluoroprop-2-en-1-amine 4-methylbenzenesulfonate] |  | 1 to 10 | < 0.1 | > 50 | 
16 | CCCCc1nc2c(F)cc(OC/C(=C/F)CN)cc2o1 [Example 82, (E)-2-(((2-butyl-4-fluorobenzo[d]-oxazol-6-yl)oxy)methyl)-3-fluoroprop-2-en-1-amine 4-methylbenzenesulfonate] | 1 to 10 | < 0.1 | < 0.1 |  | 
17 | CNC(=O)[C@H](Cc1ccccc1)Nc1nc2ccc(OC/C(=C\F)CN)cc2o1 [Example 71, (S,Z)-2-((6-((2-(aminomethyl)-3-fluoroallyl)oxy)benzo[d]oxazol-2-yl)amino)-N-methyl-3-phenylpropanamide 4-methylbenzenesulfonate] |  | 1 to 10 | < 0.1 | > 50 | 
18 | NC/C(=C/F)COc1ccc2nc(NCc3cccnc3)oc2c1 [Example 58, (Z)-6-((2-(aminomethyl)-3-fluoroallyl)oxy)-N-(pyridin-3-ylmethyl)benzo[d]oxazol-2-amine bis(4-methylbenzenesulfonate)] |  | 1 to 10 | 1 to 10 | > 50 | 
19 | COc1ncccc1CNc1nc2ccc(OC/C(=C\F)CN)cc2o1 [Example 75, (Z)-6-((2-(aminomethyl)-3-fluoroallyl)oxy)-N-((2-methoxypyridin-3-yl)methyl)benzo[d]oxazol-2-amine 4-methylbenzenesulfonate] |  | 0.1 to 1 | < 0.1 | > 50 | 
20 | NC/C(=C\F)COc1ccc2nc(NCc3ccc(C(F)(F)F)nc3)oc2c1 [Example 84, (E)-6-((2-(aminomethyl)-3-fluoroallyl)oxy)-N-((6-(trifluoromethyl)pyridin-3-yl)methyl)benzo[d]oxazol-2-amine 4-methylbenzenesulfonate] |  | 1 to 10 | < 0.1 | > 40 | 
21 | CCCNc1nc2ccc(OC/C(=C/F)CN)c(F)c2o1 [Example 6, (E)-6-((2-(aminomethyl)-3-fluoroallyl)oxy)-7-fluoro-N-propylbenzo[d]oxazol-2-amine] | 10 to 30 | 0.1 to 1 | < 0.1 |  | 

The next lines start with results.

Row | IC50 (rhMAO-A; [1]) [µM] | IC50 (rhMAO-B; [1]) [µM] | IC50 (rhVAP-1) [µM] | IC50 (rhMAO-A; bound printed in cell) [µM] | Molecule | IC50 (rhMAO-B; bound printed in cell) [µM]
22 | 1 to 10 | 1 to 10 | < 0.1 |  | NC/C(=C/F)COc1ccc2nc(N3CCOCC3)oc2c1 [Example 64, (Z)-3-fluoro-2-(((2-morpholinobenzo[d]oxazol-6-yl)oxy)methyl)prop-2-en-1-amine 4-methylbenzenesulfonate] | 
23 | 1 to 10 | 1 to 10 | < 0.1 |  | NC/C(=C\F)COc1ccc2nc(N3CCC(O)C3)oc2c1 (stereo not drawn) [Example 85, (E)-1-(6-((2-(aminomethyl)-3-fluoroallyl)oxy)benzo[d]oxazol-2-yl)pyrrolidin-3-ol 4-methylbenzenesulfonate] | 
24 | 1 to 10 | 10 to 30 | < 0.1 |  | CCCCc1nc2ccc(C(=CF)CN)cc2o1 [Example 27, 2-(2-butylbenzo[d]oxazol-6-yl)-3-fluoroprop-2-en-1-amine 4-methylbenzenesulfonate] | 
25 |  | 1 to 10 | < 0.1 | > 50 | Cc1ncccc1CNc1nc2ccc(OC/C(=C\F)CN)cc2o1 [Example 69, (Z)-6-((2-(aminomethyl)-3-fluoroallyl)oxy)-N-((2-methylpyridin-3-yl)methyl)benzo[d]oxazol-2-amine 4-methylbenzenesulfonate] | 
26 |  | 0.1 to 1 | < 0.1 | > 50 | NC/C(=C/F)COc1ccc2nc(NCc3ccncc3)oc2c1 [Example 94, (Z)-6-((2-(aminomethyl)-3-fluoroallyl)oxy)-N-(pyridin-4-ylmethyl)benzo[d]oxazol-2-amine 4-methylbenzenesulfonate] | 
27 | 10 to 30 | 0.1 to 1 | < 0.1 |  | CCCNc1nc2ccc(OC/C(=C/F)CN)cc2o1 [Example 5, (E)-6-((2-(aminomethyl)-3-fluoroallyl)oxy)-N-propylbenzo[d]oxazol-2-amine] | 
28 |  | 1 to 10 | < 0.1 | > 50 | Cc1cc(CNc2nc3ccc(OC/C(=C/F)CN)cc3o2)cc(C)n1 [Example 91, (E)-6-((2-(Aminomethyl)-3-fluoroallyl)oxy)-N-((2,6-dimethylpyridin-4-yl)methyl)benzo[d]oxazol-2-amine trihydrochloride] | 
29 |  | 1 to 10 | < 0.1 | > 50 | CC1CN(c2nc3ccc(OC/C(=C/F)CN)cc3o2)C(C)(C)C1 (stereo not drawn) [Example 86, (E)-3-fluoro-2-(((2-(2,2,4-trimethylpyrrolidin-1-yl)benzo[d]oxazol-6-yl)oxy)methyl)prop-2-en-1-amine 4-methylbenzenesulfonate] | 
30 | 1 to 10 | 1 to 10 | < 0.1 |  | CCCNc1nc2ccc(OC/C(=C\F)CN)c(F)c2s1 [Example 14, (Z)-6-((2-(aminomethyl)-3-fluoroallyl)oxy)-7-fluoro-N-propylbenzo[d]thiazol-2-amine 4-methylbenzenesulfonate] | 
31 | 1 to 10 | 1 to 10 | < 0.1 |  | NC/C(=C\F)COc1ccc2nc(N3CC4(COC4)C3)oc2c1 [Example 67, (E)-2-(((2-(2-oxa-6-azaspiro[3.3]heptan-6-yl)benzo[d]oxazol-6-yl)oxy)methyl)-3-fluoroprop-2-en-1-amine 4-methylbenzenesulfonate] | 
